Measurements: patent publication US10005739B2, “Quinazolinone and isoquinolinone derivative” (CHUGAI SEIYAKU KABUSHIKI KAISHA, priority 2013, dated 2018)

target: DDR1 (Homo sapiens (Human), UniProt Q08345); assay: Measurement of DDR1 enzyme inhibitory activity (phosphorylation of biotinylated peptide, time-resolved fluorescence); type: biochemical; conditions: human DDR1 enzyme, biotinylated peptide phosphorylation; read-out: DDR1 enzyme inhibition assay IC50
In short: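 Baculovirus-expressed human DDR1 phosphorylated a biotinylated peptide, and inhibition of that phosphorylation was measured. Phosphopeptide was detected by time-resolved fluorescence using europium cryptate–labelled anti-phosphotyrosine antibody with streptavidin-XL665.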

Chain of DDR1 (Q08345 19-913): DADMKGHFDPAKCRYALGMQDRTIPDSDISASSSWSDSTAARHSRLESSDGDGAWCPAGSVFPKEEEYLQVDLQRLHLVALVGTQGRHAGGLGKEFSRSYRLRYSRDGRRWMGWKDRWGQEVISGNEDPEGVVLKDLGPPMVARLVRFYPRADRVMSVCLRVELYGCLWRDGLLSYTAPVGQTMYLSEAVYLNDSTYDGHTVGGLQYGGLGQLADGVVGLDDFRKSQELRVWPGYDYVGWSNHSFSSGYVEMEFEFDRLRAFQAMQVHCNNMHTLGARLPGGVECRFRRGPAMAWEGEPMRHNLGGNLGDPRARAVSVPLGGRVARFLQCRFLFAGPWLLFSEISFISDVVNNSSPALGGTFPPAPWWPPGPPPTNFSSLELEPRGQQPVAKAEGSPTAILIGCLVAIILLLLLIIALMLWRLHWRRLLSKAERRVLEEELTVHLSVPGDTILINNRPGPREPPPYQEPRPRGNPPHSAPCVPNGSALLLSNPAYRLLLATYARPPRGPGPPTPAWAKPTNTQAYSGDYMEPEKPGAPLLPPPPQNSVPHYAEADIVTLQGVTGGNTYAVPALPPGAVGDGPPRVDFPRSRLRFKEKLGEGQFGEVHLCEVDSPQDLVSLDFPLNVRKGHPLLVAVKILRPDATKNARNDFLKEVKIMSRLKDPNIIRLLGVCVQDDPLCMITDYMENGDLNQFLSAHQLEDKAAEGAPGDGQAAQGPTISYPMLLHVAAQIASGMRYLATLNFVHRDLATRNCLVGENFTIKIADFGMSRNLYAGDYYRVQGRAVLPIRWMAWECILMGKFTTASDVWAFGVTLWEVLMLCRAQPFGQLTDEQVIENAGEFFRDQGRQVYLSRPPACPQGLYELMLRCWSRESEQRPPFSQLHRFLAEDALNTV

Row | IC50 | Compound
1 | 190 nM | CCSc1cc(Cl)c(Cl)cc1Nn1cnc2ccc(C(F)(F)F)cc2c1=O [Compound C-40, 3-(4,5-Dichloro-2-ethylsulfanylanilino)-6-(trifluoromethyl)quinazolin-4-one]
2 | 270 nM | CCSc1ccc(Cl)cc1Nn1cnc2cnc(OC)cc2c1=O [Compound A-21, 3-(5-Chloro-2-ethylsulfanylanilino)-6-methoxypyrido[3,4-d]pyrimidin-4-one]
3 | 120 nM | CCS(=O)(=O)c1ccc(Cl)cc1Nn1cnc2ccc(C(F)(F)F)cc2c1=O [Compound A-10, 3-(5-Chloro-2-ethylsulfonylanilino)-6-(trifluoromethyl)quinazolin-4-one]
4 | 110 nM | CCS(=O)(=O)c1ccc(Cl)cc1Nn1cnc2ccc(C)cc2c1=O [Compound A-51, 3-(5-Chloro-2-ethylsulfonylanilino)-6-methylquinazolin-4-one]
5 | 430 nM | CCS(=O)(=O)c1ccc(C#N)cc1Nn1cnc2cc(Br)c(OC(F)(F)F)cc2c1=O [Compound C-18, 3-[[7-bromo-4-oxo-6-(trifluoromethoxy)quinazolin-3-yl]amino]-4-ethylsulfonylbenzonitrile]
6 | 330 nM | CC(C)Cc1ccc(Cl)cc1Nn1cnc2ccc(OC(F)(F)F)cc2c1=O [Compound B-19, 3-[5-Chloro-2-(2-methylpropyl)anilino]-6-(trifluoromethoxy)quinazolin-4-one]
7 | 380 nM | CCS(=O)(=O)c1ccc(Cl)cc1Nn1cnc2cc(F)c(F)cc2c1=O [Compound A-31, 3-(5-Chloro-2-ethylsulfonylanilino)-6,7-difluoroquinazolin-4-one]
8 | 290 nM | CCS(=O)(=O)c1ccc(Cl)cc1Nn1cnc2ccc(I)cc2c1=O [Compound A-61, 3-(5-Chloro-2-ethylsulfonylanilino)-6-iodoquinazolin-4-one]
9 | 600 nM | CCSc1ccc(F)cc1Nn1cnc2c(Br)cc(C(F)(F)F)cc2c1=O [Compound C-21]
10 | 510 nM | CCSc1ccc(Cl)cc1Nn1cnc2cnc(F)cc2c1=O [Compound A-19, 3-(5-Chloro-2-ethylsulfanylanilino)-6-fluoropyrido[3,4-d]pyrimidin-4-one]
11 | 200 nM | CCS(=O)(=O)c1ccc(Cl)cc1Cn1cnc2cc(C)c(I)cc2c1=O [Compound E-8, 3-[(5-Chloro-2-ethylsulfonylphenyl)methyl]-6-iodo-7-methylquinazolin-4-one]
12 | 480 nM | CCSc1ccc(Cl)cc1Nn1cnc2cc(OC)c(OC)cc2c1=O [Compound A-38, 3-(5-Chloro-2-ethylsulfanylanilino)-6,7-dimethoxyquinazolin-4-one]
13 | 180 nM | CCc1ccc2ncn(Nc3cc(Cl)ccc3S(=O)(=O)CC)c(=O)c2c1 [Compound A-53, 3-(5-Chloro-2-ethylsulfonylanilino)-6-ethylquinazolin-4-one]
14 | 280 nM | CCSc1c(Cl)cc(Cl)cc1Nn1cnc2ccc(C(F)(F)F)cc2c1=O [Compound C-38, 3-(3,5-Dichloro-2-ethylsulfanylanilino)-6-(trifluoromethyl)quinazolin-4-one]
15 | 230 nM | CCSc1ccc(C#N)cc1Nn1cnc2cc(Br)c(OC(F)(F)F)cc2c1=O [Compound C-17, 3-[[7-Bromo-4-oxo-6-(trifluoromethoxy)quinazolin-3-yl]amino]-4-ethylsulfanylbenzonitrile]
16 | 480 nM | CCSc1ccc(Cl)cc1Cn1cnc2ccc(OC(F)(F)F)cc2c1=O [Compound E-3, 3-[(5-Chloro-2-ethylsulfanylphenyl)methyl]-6-(trifluoromethoxy)quinazolin-4-one]
17 | 200 nM | CCSc1ccc(Cl)cc1Nn1cnc2ccc(CC)cc2c1=O [Compound A-52, 3-(5-Chloro-2-ethylsulfanylanilino)-6-ethylquinazolin-4-one]
18 | 160 nM | CCSc1ccc(OC)cc1Nn1cnc2c(Br)cc(C(F)(F)F)cc2c1=O [Compound C-29, 8-Bromo-3-(2-ethylsulfanyl-5-methoxyanilino)-6-(trifluoromethyl)quinazolin-4-one]
